Experiments:
CDK4/Cyclin D1 = CDK4/Cyclin D1 (Homo sapiens (Human), UniProt P11802); assay: CDK4/Cyclin D1 mobility shift assay; format: biochemical; conditions: activated CDK4/Cyclin D1, 3.5 mM ATP, Morrison fit; read-out: CDK4D1 Ki
Experimental: (§1) The purpose CDK4/Cyclin D1 assay is to evaluate the inhibition (% inhibition, Kiapp and Ki values) in the presence of small molecule inhibitors by using a fluorescence based microfluidic mobility shift assay. […] The mobility shift assay electrophoretically separates the fluorescently labeled peptides (substrate and phosphorylated product) following the kinase reaction. Both substrate and product are measured and the ratio of these values is used to generate % Conversion of substrate to product by the LabChip EZ Reader.
The reaction was stopped after 195 minutes by the addition of 50 μL of 30 mM EDTA. Ki determinations were made from a plot of the fractional velocity as a function of inhibitor concentration fit to the Morrison equation with the enzyme concentration as a variable.
(§2) For CDK4 and CDK6 mobility shift assays, see also Morrison, J. F. (1969) Kinetics of the reversible inhibition of enzyme-catalysed reactions by tight-binding inhibitors, Biochimica et biophysica acta 185, 269-286; and Murphy, D. J. (2004) Determination of accurate KI values for tight-binding enzyme inhibitors: an in silico study of experimental error and assay design, Analytical biochemistry 327, 61-67.

CDK6/Cyclin D3 = CDK6/Cyclin D3 (Homo sapiens (Human), UniProt Q00534); assay: CDK6/Cyclin D3 mobility shift assay; format: biochemical; conditions: activated CDK6/Cyclin D3, 3.5 mM ATP, Morrison fit; read-out: CDK6_D3 Ki
Experimental: as §1, with “of the CDK6/Cyclin D3” for “CDK4/Cyclin D1”, “conversion” for “Conversion”
The reaction was stopped after 95 minutes by the addition of 50 μL of 30 mM EDTA. Ki determinations were made from a plot of the fractional velocity as a function of inhibitor concentration fit to the Morrison equation with the enzyme concentration as a variable.
as §2

CDK4 = CDK4 (Homo sapiens (Human), UniProt P11802); assay: Phospho-Serine 795 Rb ELISA assay in JEKO-1 cells; format: cell-based; conditions: overnight treatment, phospho-Rb S795, read-out: CDK4 pRB S795 ELISA JEKO-1 cells IC50
Experimental: (§3) JEKO-1 or MV4-11 cells were seeded at 15,000 or 20,000 cells per well, respectively, in 100 μL growth media and allowed to incubate at 37° C. with 5% CO2 overnight. The following day, compounds were serially diluted from a 10 mM top dose for an 11-point 3-fold dilution curve in DMSO. Compounds were intermediately diluted 1:200 into growth media prior to diluting 1:5 on cells for final concentration 10 μM to 0.1 nM in 0.1% DMSO on cells. JEKO-1 and MV4-11 cells were treated were treated overnight, at 37° C. with 5% CO2. Cells were lysed in 100 μL/well CST lysis buffer on ice and transferred to pre-coated and blocked anti-phospho-Ser795 Rb ELISA plates for overnight incubation at 4° C. Plates were washed to remove residual, unbound cellular proteins and total Rb detection antibody added for 90 minutes at 37° C. Following wash to remove unbound total Rb antibody, the HRP tagged antibody was allowed to bind for 30 minutes at 37° C. Following wash to remove unbound HRP antibody, Glo Substrate Reagent was added and incubated protected from light for 5 to 10 minutes. Plates were read in luminescence mode and IC50 values calculated.

CDK6 = CDK6 (Homo sapiens (Human), UniProt Q00534); assay: Phospho-Serine 795 Rb ELISA assay in MV4-11 cells; format: cell-based; conditions: overnight treatment, phospho-Rb S795, read-out: CDK6 pRB S795 ELISA MV4-11 cells IC50
Experimental: as §3

Chain of CDK6 (Q00534 whole entry): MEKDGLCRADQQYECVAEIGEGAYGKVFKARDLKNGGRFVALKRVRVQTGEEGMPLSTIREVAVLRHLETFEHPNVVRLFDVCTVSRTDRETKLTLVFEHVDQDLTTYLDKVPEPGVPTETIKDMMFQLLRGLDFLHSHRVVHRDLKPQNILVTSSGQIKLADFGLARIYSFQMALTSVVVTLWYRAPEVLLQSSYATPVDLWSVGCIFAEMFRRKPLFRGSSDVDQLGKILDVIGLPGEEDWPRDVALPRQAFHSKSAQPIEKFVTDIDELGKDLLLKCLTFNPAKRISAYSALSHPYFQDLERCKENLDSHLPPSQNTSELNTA
Chain of CDK6 (P30281 whole entry partner): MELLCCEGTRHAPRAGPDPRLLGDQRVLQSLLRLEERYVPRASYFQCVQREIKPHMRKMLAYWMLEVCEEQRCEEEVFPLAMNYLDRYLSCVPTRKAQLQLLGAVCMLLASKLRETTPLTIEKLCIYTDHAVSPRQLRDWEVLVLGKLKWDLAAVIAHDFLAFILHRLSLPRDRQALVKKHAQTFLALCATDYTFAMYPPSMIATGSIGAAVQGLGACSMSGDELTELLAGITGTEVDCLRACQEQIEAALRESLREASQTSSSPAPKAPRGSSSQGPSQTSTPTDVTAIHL
Chain of CDK6/Cyclin D3 (Q00534 whole entry): as the sequence (Q00534 whole entry) above
Chain of CDK6/Cyclin D3 (P30281 whole entry partner): as the sequence (P30281 whole entry partner) above
Chain of CDK4 (P11802 2-303): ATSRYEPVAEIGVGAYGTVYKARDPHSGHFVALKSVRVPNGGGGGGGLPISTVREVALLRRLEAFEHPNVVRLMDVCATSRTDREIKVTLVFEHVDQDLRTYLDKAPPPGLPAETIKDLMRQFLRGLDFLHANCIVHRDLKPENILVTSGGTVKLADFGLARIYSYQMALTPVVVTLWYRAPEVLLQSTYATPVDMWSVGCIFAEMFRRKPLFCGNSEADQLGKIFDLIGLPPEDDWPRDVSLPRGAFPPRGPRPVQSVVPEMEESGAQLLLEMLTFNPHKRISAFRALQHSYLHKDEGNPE
Chain of CDK4 (P24385 whole entry partner): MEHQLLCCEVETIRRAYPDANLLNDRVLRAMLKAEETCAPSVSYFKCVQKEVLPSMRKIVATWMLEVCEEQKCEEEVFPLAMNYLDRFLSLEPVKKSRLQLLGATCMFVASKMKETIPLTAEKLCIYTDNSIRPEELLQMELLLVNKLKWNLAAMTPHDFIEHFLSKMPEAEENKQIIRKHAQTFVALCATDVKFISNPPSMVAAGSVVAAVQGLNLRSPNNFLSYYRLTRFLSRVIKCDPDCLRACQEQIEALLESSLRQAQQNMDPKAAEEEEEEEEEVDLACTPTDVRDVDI
Chain of CDK4/Cyclin D1 (P11802 whole entry): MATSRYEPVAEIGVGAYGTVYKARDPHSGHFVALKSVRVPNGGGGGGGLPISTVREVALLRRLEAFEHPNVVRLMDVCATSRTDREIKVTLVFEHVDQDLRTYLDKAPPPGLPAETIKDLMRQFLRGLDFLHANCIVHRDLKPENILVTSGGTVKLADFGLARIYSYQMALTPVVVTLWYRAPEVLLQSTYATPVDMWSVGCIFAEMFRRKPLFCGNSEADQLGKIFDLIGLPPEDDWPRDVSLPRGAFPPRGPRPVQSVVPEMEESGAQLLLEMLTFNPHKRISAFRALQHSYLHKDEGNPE
Chain of CDK4/Cyclin D1 (P24385 whole entry partner): as the sequence (P24385 whole entry partner) above

For `CC(C)n1c(C(C)(O)C2CC2)nc2c(F)cc(-c3nc(N[C@@H]4CCOC[C@H]4O)ncc3Cl)cc21` (single isomer, unassigned) [Example A24], the Ki (CDK4/Cyclin D1) was 1.3 nM, the Ki (CDK6/Cyclin D3) was 16.4 nM and the IC50 (CDK4) was 40.1 nM. The IC50 (CDK6) was 167 nM.

In the case of `CC(C)n1c(C2CCO2)nc2c(F)cc(-c3nc(N[C@@H]4CCN(S(C)(=O)=O)C[C@H]4O)ncc3Cl)cc21` (single isomer, unassigned) [Example A31], the Ki (CDK4/Cyclin D1) is reported as 0.5 nM, the Ki (CDK6/Cyclin D3) is reported as 7.1 nM and the IC50 (CDK4) is reported as 23.5 nM. It also gave an IC50 (CDK6) of 87 nM.

With `CC(O)c1nc2c(F)cc(-c3nc(N[C@@H]4CCOC[C@H]4O)ncc3Cl)cc2n1C(C)C(F)F` (single isomer, unassigned) [Example A36] the Ki (CDK4/Cyclin D1) was 0.2 nM, the Ki (CDK6/Cyclin D3) was 3.7 nM and the IC50 (CDK4) was 19.6 nM. It also gave an IC50 (CDK6) of 43.9 nM.

`CC(N)c1nc2c(F)cc(-c3nc(N[C@@H]4CCN(S(C)(=O)=O)C[C@H]4O)ncc3Cl)cc2n1C(C)C` (single isomer, unassigned) [Example A47] gave a Ki (CDK4/Cyclin D1) of 1 nM, a Ki (CDK6/Cyclin D3) of 24.6 nM and an IC50 (CDK4) of 383 nM. It also gave an IC50 (CDK6) of 370 nM.

`CC(N)c1nc2c(F)cc(-c3nc(N[C@@H]4CCN(S(C)(=O)=O)C[C@H]4O)ncc3Cl)cc2n1C(C)C` (single isomer, unassigned) [Example A48] showed a Ki (CDK4/Cyclin D1) of 0.1 nM, a Ki (CDK6/Cyclin D3) of 2.3 nM and an IC50 (CDK4) of 36.5 nM. It also gave an IC50 (CDK6) of 58.9 nM.

Compound `CC1CNCc2nc3c(F)cc(-c4nc(N[C@@H]5CCOC[C@H]5O)ncc4Cl)cc3n21` (single isomer, unassigned) [Example A55, 1,5-anhydro-3-{[5-chloro-4-(9-fluoro-4-methyl-1,2,3,4-tetrahydropyrazino[1,2-a]benzimidazol-7-yl)pyrimidin-2-yl]amino}-2,3-dideoxy-D-threo-pentitol] has a Ki (CDK4/Cyclin D1) of 3.2 nM, a Ki (CDK6/Cyclin D3) of 64.9 nM and an IC50 (CDK4) of 198 nM. For the same compound, the IC50 (CDK6) was 283 nM.

`CC(C)n1c(CC(N)C(F)F)nc2c(F)cc(-c3nc(N[C@@H]4CCOC[C@H]4O)ncc3Cl)cc21` (single isomer, unassigned) [Example A57, 3-({4-[2-(2-amino-3,3-difluoropropyl)-4-fluoro-1-(propan-2-yl)-1H-benzimidazol-6-yl]-5-chloropyrimidin-2-yl}amino)-1,5-anhydro-2,3-dideoxy-D-threo-pentitol] was tested, and the Ki (CDK4/Cyclin D1) was 0.4 nM, the Ki (CDK6/Cyclin D3) was 19.1 nM and the IC50 (CDK4) was 49 nM. The IC50 (CDK6) was 269 nM.

Work on `CC(C)n1c(CC(N)C(F)F)nc2c(F)cc(-c3nc(N[C@@H]4CCOC[C@H]4O)ncc3Cl)cc21` (single isomer, unassigned) [Example A58, 3-({4-[2-(2-amino-3,3-difluoropropyl)-4-fluoro-1-(propan-2-yl)-1H-benzimidazol-6-yl]-5-chloropyrimidin-2-yl}amino)-1,5-anhydro-2,3-dideoxy-D-threo-pentitol] yielded a Ki (CDK4/Cyclin D1) of 0.6 nM, a Ki (CDK6/Cyclin D3) of 17.6 nM and an IC50 (CDK4) of 33.1 nM. For the same compound, the IC50 (CDK6) was 203 nM.

For `COCC(C)n1c(C)nc2c(F)cc(-c3nc(N[C@@H]4CCN(S(C)(=O)=O)C[C@H]4O)ncc3Cl)cc21` (single isomer, unassigned) [Example A73], the Ki (CDK4/Cyclin D1) was 0.9 nM, the Ki (CDK6/Cyclin D3) was 16.1 nM and the IC50 (CDK4) was 72 nM. The IC50 (CDK6) was 188 nM.

In the case of `COCC(C)n1c(C)nc2c(F)cc(-c3nc(N[C@@H]4CCN(S(C)(=O)=O)C[C@H]4O)ncc3Cl)cc21` (single isomer, unassigned) [Example A74], the Ki (CDK4/Cyclin D1) is reported as 0.2 nM, the Ki (CDK6/Cyclin D3) is reported as 6.2 nM and the IC50 (CDK4) is reported as 26.5 nM. For the same compound, the IC50 (CDK6) was 89.7 nM.

`Cc1nc2c(F)cc(-c3nc(N[C@@H]4CCN(S(C)(=O)=O)C[C@H]4O)ncc3Cl)cc2n1C(C)C` [Example A01, (3R,4R)-4-({5-chloro-4-[4-fluoro-2-methyl-1-(propan-2-yl)-1H-benzimidazol-6-yl]pyrimidin-2-yl}amino)-1-(methanesulfonyl)piperidin-3-ol] showed a Ki (CDK4/Cyclin D1) of 0.1 nM, a Ki (CDK6/Cyclin D3) of 2.3 nM and an IC50 (CDK4) of 25.3 nM. The IC50 (CDK6) was 76.5 nM.

`Cc1nc2c(F)cc(-c3nc(N[C@@H]4CCN(S(C)(=O)=O)C[C@H]4O)ncc3F)cc2n1C(C)C` [Example A02] gave a Ki (CDK4/Cyclin D1) of 0.1 nM, a Ki (CDK6/Cyclin D3) of 2.5 nM and an IC50 (CDK4) of 88.6 nM. For the same compound, the IC50 (CDK6) was 163 nM.

Work on `Cc1nc2c(F)cc(-c3ccnc(N[C@@H]4CCN(S(C)(=O)=O)C[C@H]4O)n3)cc2n1C(C)C` [Example A04] yielded a Ki (CDK4/Cyclin D1) of 0.6 nM, a Ki (CDK6/Cyclin D3) of 11.4 nM and an IC50 (CDK4) of 330 nM. The IC50 (CDK6) was 289 nM.

`Cc1nc2cc(F)c(-c3ccnc(N[C@@H]4CCN(S(C)(=O)=O)C[C@H]4O)n3)cc2n1C(C)C` [Example A05] gave a Ki (CDK4/Cyclin D1) of 3.3 nM, a Ki (CDK6/Cyclin D3) of 50.8 nM and an IC50 (CDK4) of 225 nM. It also gave an IC50 (CDK6) of 541 nM.

With `Cc1nc2cc(F)c(-c3nc(N[C@@H]4CCN(S(C)(=O)=O)C[C@H]4O)ncc3Cl)cc2n1C(C)C` [Example A06] the Ki (CDK4/Cyclin D1) was 1.4 nM, the Ki (CDK6/Cyclin D3) was 17.5 nM and the IC50 (CDK4) was 87.4 nM. For the same compound, the IC50 (CDK6) was 192 nM.

`Cc1nc2cc(F)c(-c3nc(N[C@@H]4CCN(S(C)(=O)=O)C[C@H]4O)ncc3F)cc2n1C(C)C` [Example A07] gave a Ki (CDK4/Cyclin D1) of 1.8 nM, a Ki (CDK6/Cyclin D3) of 28 nM and an IC50 (CDK4) of 182 nM. The IC50 (CDK6) was 520 nM.

In the case of `CC1(C)CCc2nc3c(F)cc(-c4nc(N[C@@H]5CCN(S(C)(=O)=O)C[C@H]5O)ncc4Cl)cc3n21` [Example A09], the Ki (CDK4/Cyclin D1) is reported as 0.1 nM, the Ki (CDK6/Cyclin D3) is reported as 1.4 nM and the IC50 (CDK4) is reported as 16.8 nM. It also gave an IC50 (CDK6) of 57.6 nM.

Compound `C[C@H]1COCc2nc3c(F)cc(-c4nc(N[C@@H]5CCN(S(C)(=O)=O)C[C@H]5O)ncc4Cl)cc3n21` [Example A10] has a Ki (CDK4/Cyclin D1) of 0.6 nM, a Ki (CDK6/Cyclin D3) of 10.4 nM and an IC50 (CDK4) of 72.7 nM. It also gave an IC50 (CDK6) of 195 nM.

`C[C@@H]1COCc2nc3c(F)cc(-c4nc(N[C@@H]5CCN(S(C)(=O)=O)C[C@H]5O)ncc4Cl)cc3n21` [Example A11] showed a Ki (CDK4/Cyclin D1) of 0.3 nM, a Ki (CDK6/Cyclin D3) of 3 nM and an IC50 (CDK4) of 123 nM. It also gave an IC50 (CDK6) of 144 nM.

Work on `CC(C)n1c([C@H](C)O)nc2cc(F)c(-c3nc(N[C@@H]4CCOC[C@H]4O)ncc3Cl)cc21` [Example A12] yielded a Ki (CDK4/Cyclin D1) of 0.6 nM, a Ki (CDK6/Cyclin D3) of 7.9 nM and an IC50 (CDK4) of 29.8 nM. It also gave an IC50 (CDK6) of 108 nM.

With `CC(C)n1c([C@@H](C)O)nc2c(F)cc(-c3nc(N[C@@H]4CCOC[C@H]4O)ncc3Cl)cc21` [Example A13] the Ki (CDK4/Cyclin D1) was 1.7 nM, the Ki (CDK6/Cyclin D3) was 31.5 nM and the IC50 (CDK4) was 72.2 nM. It also gave an IC50 (CDK6) of 277 nM.

With `CC1(C)COCc2nc3c(F)cc(-c4nc(N[C@@H]5CCOC[C@H]5O)ncc4F)cc3n21` [Example A19] the Ki (CDK4/Cyclin D1) was 0.9 nM, the Ki (CDK6/Cyclin D3) was 14.6 nM and the IC50 (CDK4) was 69.1 nM. The IC50 (CDK6) was 318 nM.

In the case of `CC1(C)OCCn2nc3c(F)cc(-c4nc(N[C@@H]5CCN(S(C)(=O)=O)C[C@H]5O)ncc4Cl)cc3c21` [Example A26], the Ki (CDK4/Cyclin D1) is reported as 0.2 nM, the Ki (CDK6/Cyclin D3) is reported as 4.2 nM and the IC50 (CDK4) is reported as 12.2 nM. It also gave an IC50 (CDK6) of 24.3 nM.

`CC1(C)OCCn2nc3c(F)cc(-c4nc(N[C@@H]5CCOC[C@H]5O)ncc4Cl)cc3c21` [Example A27] was tested, and the Ki (CDK4/Cyclin D1) was 1 nM, the Ki (CDK6/Cyclin D3) was 15.7 nM and the IC50 (CDK4) was 75.6 nM. For the same compound, the IC50 (CDK6) was 269 nM.

`CC(C)c1c2cc(-c3nc(N[C@@H]4CCN(S(C)(=O)=O)C[C@H]4O)ncc3Cl)ccc2nn1C` [Example A28] gave a Ki (CDK4/Cyclin D1) of 0.5 nM, a Ki (CDK6/Cyclin D3) of 6.2 nM and an IC50 (CDK4) of 99.2 nM. It also gave an IC50 (CDK6) of 131 nM.

With `Cn1nc2ccc(-c3nc(N[C@@H]4CCN(S(C)(=O)=O)C[C@H]4O)ncc3Cl)cc2c1C(C)(C)O` [Example A29] the Ki (CDK4/Cyclin D1) was 0.6 nM, the Ki (CDK6/Cyclin D3) was 5.1 nM and the IC50 (CDK4) was 68.6 nM. The IC50 (CDK6) was 95.7 nM.

Work on `CC(C)n1c(C2COC2)nc2c(F)cc(-c3nc(N[C@@H]4CCN(S(C)(=O)=O)C[C@H]4O)ncc3Cl)cc21` [Example A30] yielded a Ki (CDK4/Cyclin D1) of 0.2 nM, a Ki (CDK6/Cyclin D3) of 4.9 nM and an IC50 (CDK4) of 51.6 nM. For the same compound, the IC50 (CDK6) was 63.5 nM.
